Assay results reported in US20250276983A1, “COMPOUNDS AND METHODS FOR MODULATING HER2” (IAMBIC THERAPEUTICS, INC., priority 2022, published 2025).
Like-named read-outs stand apart in the source and are kept apart here.

What was measured:
Format in all cases: cell-based
BaF3_HER2YVMA cells = assay: Cell growth inhibition assay, BaF3_HER2YVMA; settings: read-out: HER2-YVMA IC50 (nM), cell growth inhibition
BaF3_HER2WT cells = assay: Cell growth inhibition assay, BaF3_HER2WT; settings: 3 days treatment, CellTiterGlo 2.0, read-out: HER2 WT IC50 (nM), cell growth inhibition
BaF3_EGFRWT cells = assay: Cell growth inhibition assay, BaF3_EGFRWT; settings: 80 ng/mL recombinant human EGF, 3 days treatment, CellTiterGlo 2.0, read-out: EGFR WT IC50 (nM), cell growth inhibition
[1] = 72 h, BaF3_HER2YVMA cells, 3 days treatment, CellTiterGlo 2.0
[2] = BaF3_HER2YVMA cells, 3 days treatment, CellTiterGlo 2.0

SMILES	IC50 (BaF3_HER2YVMA cells; [1]) [nM]	IC50 (BaF3_HER2WT cells; 72 h) [nM]	IC50 (BaF3_EGFRWT cells; 72 h) [nM]	IC50 (BaF3_HER2YVMA cells; [2]) [nM]	IC50 (BaF3_HER2WT cells) [nM]	IC50 (BaF3_EGFRWT cells) [nM]	IC50 (BaF3_HER2YVMA cells; 72 h) [nM]
COC/C=C/C(=O)N1CCC(c2ccn3ncnc(Nc4ccc(Oc5ccn6ncnc6c5)c(C)c4)c23)CC1 [Example 58, (E)-1-(4-(4-((4-([1,2,4]triazolo[1,5-a]pyridin-7-yloxy)-3-methylphenyl)amino)pyrrolo[2,1-f][1,2,4]triazin-5-yl)piperidin-1-yl)-4-methoxybut-2-en-1-one]	500 to 1500	< 200	1500 to 5000				
C=C(CN(C)C)C(=O)N1C2C=C(c3ccn4ncnc(Nc5ccc(Oc6ccn7ncnc7c6)c(C)c5)c34)CC1CC2 (stereo not drawn) [Example 30, 1-(3-(4-((4-([1,2,4]triazolo[1,5-a]pyridin-7-yloxy)-3-methylphenyl)amino)pyrrolo[2,1-f][1,2,4]triazin-5-yl)-8-azabicyclo[3.2.1]oct-2-en-8-yl)-2-((dimethylamino)methyl)prop-2-en-1-one acetate]	< 200	< 200	1500 to 5000				
C=CC(=O)N1C[C@H]2C[C@@H]1C[C@@H]2c1ccn2ncnc(Nc3ccc(Oc4ccn5ncnc5c4)c(C)c3)c12 [Example 141, 1-[(1S,4S,5S)-5-{4-[(3-methyl-4-{[1,2,4]triazolo[1,5-a]pyridin-7-yloxy}phenyl)amino]pyrrolo[2,1-f][1,2,4]triazin-5-yl}-2-azabicyclo[2.2.1]heptan-2-yl]prop-2-en-1-one]	500 to 1500	200 to 500	1500 to 5000				
COC1CCN(C/C=C/C(=O)N2CCC(c3ccn4ncnc(Nc5ccc(Oc6ccn7ncnc7c6)c(C)c5)c34)CC2)C1 (stereo not drawn) [Example 118, E-1-(4-(4-((4-([1,2,4]triazolo[1,5-a]-207-midazol-7-yloxy)-3-methylphenyl)amino)pyrrolo[2,1-f][1,2,4]triazin-5-yl)piperidin-1-yl)-4-(3-methoxypyrrolidin-1-yl)but-2-en-1-one]	< 200	< 200	1500 to 5000				
C=C(CN(C)C)C(=O)N1CC2CCC1CC2c1ccn2ncnc(Nc3ccc(Oc4ccn5ncnc5c4)c(C)c3)c12 (single isomer, unassigned) [Examples 135 and 136, second eluting isomer, 1-(5-(4-((4-([1,2,4]triazolo[1,5-a]pyridin-7-yloxy)-3-methylphenyl)amino)pyrrolo[2,1-f][1,2,4]triazin-5-yl)-2-azabicyclo[2.2.2]octan-2-yl)-2-((dimethylamino)methyl)prop-2-en-1-one]				200 to 500	< 200	< 200	
Cc1cc(Nc2ncnn3ccc(C4CC5CCC4CN5C(=O)/C=C/CN(C)C)c23)ccc1Oc1ccn2ncnc2c1 (single isomer, unassigned) [Examples 137 and 138, second eluting isomer, (E)-1-(5-(4-((4-([1,2,4]triazolo[1,5-a]pyridin-7-yloxy)-3-methylphenyl)amino)pyrrolo[2,1-f][1,2,4]triazin-5-yl)-2-azabicyclo[2.2.2]octan-2-yl)-4-(dimethylamino)but-2-en-1-one]	1500 to 5000	500 to 1500	1500 to 5000				
Cc1cc(Nc2ncnn3ccc(C4CN(C(=O)/C=C/C5CCCN5C)C4)c23)ccc1Oc1ccn2ncnc2c1 (single isomer, unassigned) [Examples 171 and 172, second eluting isomer, (E)-1-(3-(4-((4-([1,2,4]triazolo[1,5-a]pyridin-7-yloxy)-3-methylphenyl)amino)pyrrolo[2,1-f][1,2,4]triazin-5-yl)azetidin-1-yl)-3-(1-methylpyrrolidin-2-yl)prop-2-en-1-one]	< 200	< 200	1500 to 5000				
Cc1cc(Nc2ncnn3ccc(C4CN(C(=O)/C(C#N)=C/C(C)(C)C)C4)c23)ccc1Oc1ccn2ncnc2c1 [Example 89, (E)-2-(3-(4-((4-([1,2,4]triazolo[1,5-a]pyridin-7-yloxy)-3-methylphenyl)amino)pyro-lo[2,1-f][1,2,4]triazin-5-yl)azetidine-1-carbonyl)-4,4-dimethylpent-2-enenitrile]	1500 to 5000	1500 to 5000	1500 to 5000				
C=CC(=O)N1C[C@H]2C[C@@H]1C[C@H]2c1ccn2ncnc(Nc3ccc(Oc4ccn5ncnc5c4)c(C)c3)c12 (relative stereo) [Example 104, Rel-1-[(1S,4S,5R)-5-{4-[(3-methyl-4-{[1,2,4]triazolo[1,5-a]pyridin-7-yloxy}phenyl)amino]pyrrolo[2,1-f][1,2,4]triazin-5-yl}]-2-azabicyclo[2.2.1]heptan-2-yl]prop-2-en-1-one]	1500 to 5000	500 to 1500	1500 to 5000				
CNC/C=C/C(=O)N1CCC(c2ccn3ncnc(Nc4ccc(Oc5ccn6ncnc6c5)c(C)c4)c23)CC1 [Example 177, (E)-1-(4-(4-((4-([1,2,4]triazolo[1,5-a]pyridin-7-yloxy)-3-methylphenyl)amino)pyrrolo[2,1-f][1,2,4]triazin-5-yl)piperidin-1-yl)-4-(methylamino)but-2-en-1-one]	< 200	< 200	1500 to 5000				
Cc1cc(Nc2ncnn3ccc(C4CCCN(C(=O)C(F)Cl)CC4)c23)ccc1Oc1ccn2ncnc2c1 (single isomer, unassigned) [Examples 145, 146, 147 and 148, second eluting isomer, 1-(4-(4-((4-([1,2,4]triazolo[1,5-a]pyridin-7-yloxy)-3-methylphenyl)amino)pyrrolo[2,1-f][1,2,4]triazin-5-yl)azepan-1-yl)-2-chloro-2-fluoroethan-1-one]				< 200	< 200	500 to 1500	
C=CC(=O)N1CC2CCC1CC2c1ccn2ncnc(Nc3ccc(Oc4ccn5ncnc5c4)c(C)c3)c12 (single isomer, unassigned) [Examples 139 and 140, second eluting isomer, 1-(5-(4-((4-([1,2,4]triazolo[1,5-a]pyridin-7-yloxy)-3-methylphenyl)amino)pyrrolo[2,1-f][1,2,4]triazin-5-yl)-2-azabicyclo[2.2.2]octan-2-yl)prop-2-en-1-one]				1500 to 5000	500 to 1500	1500 to 5000	
Cc1cc(Nc2ncnn3ccc(C4CN(C(=O)/C=C/CN5CC(F)C5)C4)c23)ccc1Oc1ccc2c(c1)ncn2C [Example 161, (E)-4-(3-fluoroazetidin-1-yl)-1-(3-(4-((3-methyl-4-((1-methyl-1H-benzo[d]imidazol-5-yl)oxy)phenyl)amino)pyrrolo[2,1-f][1,2,4]triazin-5-yl)azetidin-1-yl)but-2-en-1-one]	< 200	< 200	1500 to 5000				
COC1CN(C/C=C/C(=O)N2CCC(c3ccn4ncnc(Nc5ccc(Oc6ccn7ncnc7c6)c(C)c5)c34)CC2)C1 [Example 117, (E)-1-(4-(4-((4-([1,2,4]triazolo[1,5-a]-207-midazol-7-yloxy)-3-methylphenyl)amino)pyrrolo[2,1-f][1,2,4]triazin-5-yl)piperidin-1-yl)-4-(3-methoxyazetidin-1-yl)but-2-en-1-one]	< 200	< 200	1500 to 5000				
Cc1cc(Nc2ncnn3ccc([C@@H]4CCCN(C(=O)[C@H](F)Cl)CC4)c23)ccc1Oc1ccn2ncnc2c1 (single isomer, unassigned) [Examples 145, 146, 147 and 148, fourth eluting isomer]	500 to 1500	200 to 500	1500 to 5000				
C=CC(=O)N(C)C1CCCN(c2ccn3ncnc(Nc4ccc(Oc5ccn6ncnc6c5)c(C)c4)c23)C1 (stereo not drawn) [Example 69, N-(1-(4-((4-([1,2,4]triazolo[1,5-a]pyridin-7-yloxy)-3-methylphenyl)amino)pyrrolo[2,1-f][1,2,4]triazin-5-yl)piperidin-3-yl)-N-methylacrylamide]	200 to 500	< 200	1500 to 5000				
C=C(C#N)C(=O)N1CCC(c2ccn3ncnc(Nc4ccc(Oc5ccn6ncnc6c5)c(C)c4)c23)CC1 [Example 27, 2-(4-(4-((4-([1,2,4]triazolo[1,5-a]pyridin-7-yloxy)-3-methylphenyl)amino)pyrrolo[2,1-f][1,2,4]triazin-5-yl)piperidine-1-carbonyl)acrylonitrile]		500 to 1500	1500 to 5000				1500 to 5000
C=CC(=O)N1CC2CCC1CC2c1ccn2ncnc(Nc3ccc(Oc4ccn5ncnc5c4)c(C)c3)c12 (single isomer, unassigned) [Examples 139 and 140, first eluting isomer, 1-(5-(4-((4-([1,2,4]triazolo[1,5-a]pyridin-7-yloxy)-3-methylphenyl)amino)pyrrolo[2,1-f][1,2,4]triazin-5-yl)-2-azabicyclo[2.2.2]octan-2-yl)prop-2-en-1-one]			1500 to 5000	< 200	< 200		
Cc1cc(Nc2ncnn3ccc(C4CN(C(=O)/C=C/CN(C)C)C4)c23)ccc1Oc1ccn2cnnc2c1 [Example 134, (E)-1-(3-(4-((4-([1,2,4]triazolo[4,3-a]pyridin-7-yloxy)-3-methylphenyl)amino)pyrrolo[2,1-f][1,2,4]triazin-5-yl)azetidin-1-yl)-4-(dimethylamino)but-2-en-1-one]	1500 to 5000	200 to 500	1500 to 5000				
Cc1cc(Nc2ncnn3ccc(C4CCN(C(=O)/C=C/CN(C)C)CC4(F)F)c23)ccc1Oc1ccn2ncnc2c1 (stereo not drawn) [Example 176, (E)-1-(4-(4-((4-([1,2,4]triazolo[1,5-a]pyridin-7-yloxy)-3-methylphenyl)amino)pyrrolo[2,1-f][1,2,4]triazin-5-yl)-3,3-difluoropiperidin-1-yl)-4-(dimethylamino)but-2-en-1-one]	< 200	< 200	1500 to 5000				
